Data reported in the supplement of paper PMC10307832.

Legend:
Assay in all cases: relative viability (nuclei count vs DMSO), 5 days (fraction); higher = more cells survive
GW-2580 + Dasatinib = compound: COC1=CC=C(C=C1)COC2=C(C=C(C=C2)CC3=CN=C(N=C3N)N)OC [GW-2580] + Cc1nc(Nc2ncc(C(=O)Nc3c(C)cccc3Cl)s2)cc(N2CCN(CCO)CC2)n1 [Dasatinib] (partner 0.075 µM)
How it was run: (§1)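 After 5 days of treatment, lung cancer cells in 1536-well plates were fixed and stained in a single step (final 0.05% Triton X-100, 1% formaldehyde, 1 ug/ml Hoechst) and their nuclei counted on 4× images. Treatment had been applied by pin tool the day after seeding as one drug alone or as a fixed anchor-drug dose with five library-drug doses (not always all listed) in √10 steps. Relative viability is the nuclei count of treated wells divided by that of vehicle wells, and values are medians of duplicate plates.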

Fedratinib + OSI-027 = compound: Cc1cnc(Nc2ccc(OCCN3CCCC3)cc2)nc1Nc1cccc(S(=O)(=O)NC(C)(C)C)c1 [Fedratinib] + COc1cccc2cc(-c3nc([C@H]4CC[C@H](C(=O)O)CC4)n4ncnc(N)c34)[nH]c12 [OSI-027] (partner 0.5 µM)
How it was run: as §1

Fedratinib + Foretinib = compound: Cc1cnc(Nc2ccc(OCCN3CCCC3)cc2)nc1Nc1cccc(S(=O)(=O)NC(C)(C)C)c1 [Fedratinib] + COc1cc2c(Oc3ccc(NC(=O)C4(C(=O)Nc5ccc(F)cc5)CC4)cc3F)ccnc2cc1OCCCN1CCOCC1 [Foretinib] (partner 0.25 µM)
How it was run: as §1

GW-2580 + Trametinib = compound: COC1=CC=C(C=C1)COC2=C(C=C(C=C2)CC3=CN=C(N=C3N)N)OC [GW-2580] + CC(=O)Nc1cccc(-n2c(=O)n(C3CC3)c(=O)c3c(Nc4ccc(I)cc4F)n(C)c(=O)c(C)c32)c1 [Trametinib] (partner 0.02 µM)
How it was run: as §1

Fedratinib + Dasatinib = compound: Cc1cnc(Nc2ccc(OCCN3CCCC3)cc2)nc1Nc1cccc(S(=O)(=O)NC(C)(C)C)c1 [Fedratinib] + Cc1nc(Nc2ncc(C(=O)Nc3c(C)cccc3Cl)s2)cc(N2CCN(CCO)CC2)n1 [Dasatinib] (partner 0.075 µM)
How it was run: as §1

Fedratinib + Pictilisib = compound: Cc1cnc(Nc2ccc(OCCN3CCCC3)cc2)nc1Nc1cccc(S(=O)(=O)NC(C)(C)C)c1 [Fedratinib] + CS(=O)(=O)N1CCN(Cc2cc3nc(-c4cccc5[nH]ncc45)nc(N4CCOCC4)c3s2)CC1 [Pictilisib] (partner 1 µM)
How it was run: as §1

**Q.** UMC-11 was tested. Which relative viability (GW-2580 + Dasatinib; first compound 0.08 µM) did it give?
**A.** The relative viability was 0.572.

**Q.** What about the relative viability (GW-2580 + Dasatinib; first compound 0.8 µM) of the same cell line?
**A.** Its relative viability is 0.508.

**Q.** And the relative viability (GW-2580 + Dasatinib; first compound 2.53 µM)?
**A.** Its relative viability is 0.441.

**Q.** What about the relative viability (GW-2580 + Dasatinib; first compound 8 µM) of the same cell line?
**A.** Its relative viability is 0.62.

**Q.** What about the relative viability (Fedratinib + OSI-027; first compound 0.1 µM) of the same cell line?
**A.** The relative viability was 0.473.

**Q.** What about the relative viability (Fedratinib + OSI-027; first compound 0.3162 µM) of the same cell line?
**A.** Its relative viability is 0.452.

**Q.** What about the relative viability (Fedratinib + OSI-027; first compound 1 µM) of the same cell line?
**A.** The relative viability was 0.373.

**Q.** What about the relative viability (Fedratinib + Foretinib; first compound 0.1 µM) of the same cell line?
**A.** Its relative viability is 1.1.

**Q.** What about the relative viability (Fedratinib + Foretinib; first compound 0.3162 µM) of the same cell line?
**A.** Its relative viability is 0.958.

**Q.** And the relative viability (Fedratinib + Foretinib; first compound 1 µM)?
**A.** Its relative viability is 0.706.

**Q.** And the relative viability (GW-2580 + Trametinib; first compound 0.08 µM)?
**A.** The relative viability was 0.826.

**Q.** What about the relative viability (GW-2580 + Trametinib; first compound 0.8 µM) of the same cell line?
**A.** Its relative viability is 0.866.

**Q.** What about the relative viability (GW-2580 + Trametinib; first compound 2.53 µM) of the same cell line?
**A.** The relative viability was 0.574.

**Q.** What about the relative viability (GW-2580 + Trametinib; first compound 8 µM) of the same cell line?
**A.** The relative viability was 0.817.

**Q.** And the relative viability (Fedratinib + Dasatinib; first compound 0.1 µM)?
**A.** Its relative viability is 0.53.

**Q.** What about the relative viability (Fedratinib + Dasatinib; first compound 0.3162 µM) of the same cell line?
**A.** Its relative viability is 0.412.

**Q.** What about the relative viability (Fedratinib + Dasatinib; first compound 1 µM) of the same cell line?
**A.** The relative viability was 0.453.

**Q.** What about the relative viability (Fedratinib + Pictilisib; first compound 0.1 µM) of the same cell line?
**A.** The relative viability was 0.672.

**Q.** And the relative viability (Fedratinib + Pictilisib; first compound 0.3162 µM)?
**A.** Its relative viability is 0.82.

**Q.** And the relative viability (Fedratinib + Pictilisib; first compound 1 µM)?
**A.** The relative viability was 0.397.
